Data from patent publication US9169477B2, “Compositions and methods for immunization against bacteria expressing a carbapenemase” (priority 2012, dated 2015).

B1: rNDM-1: Recombinant NDM-1 protein cloned from K. pneumoniae ATCC BAA-2146, injected with Al(OH)3 adjuvant for immunization (protein, UniProt C7C422 29-270, looked up)
Metallo-beta-lactamase type 2: GEIRPTIGQQMETGDQRFGDLVFRQLAPNVWQHTSYLDMPGFGAVASNGLIVRDGGRVLVVDTAWTDDQTAQILNWIKQEINLPVALAVVTHAHQDKMGGMDALHAAGIATYANALSNQLAPQEGMVAAQHSLTFAANGWVEPATAPNFGPLKVFYPGPGHTSDNITVGIDGTDIAFGGCLIKDSKAKSLGNLGDADTEHYAASARAFGAAFPKASMIVMSHSAPDSRAAITHTARMADKLR

Experiments:
[1] = system: NDM-1-expressing K. pneumoniae (ATCC BAA-2146); test: Imipenem MIC of the test strain; assay type: cell-based; conditions: Klebsiella pneumoniae, ATCCBAA2146
Procedure: (§1) To determine the in vitro effects of the antibody generated in response to rNDM1 and rKPC vaccination, bacteria were incubated overnight at 37° C. in 10% serum plus Mueller-Hinton broth, per CLSI standards. […] Thus, the immune serum was directly cidal for NDM-1 expressing K. pneumoniae.

[2] = system: KPC-expressing Klebsiella pneumoniae strain KPC-KP1; test: Imipenem MIC of the test strain; assay type: cell-based
Procedure: as §1

NDM-1 = molecular target: T1, NDM-1 (Klebsiella pneumoniae, UniProt C7C422); test: IgG antibody titers in serum of mice vaccinated with rNDM-1; assay type: in vivo; conditions: subcutaneous with Al(OH)3 adjuvant, booster at three weeks, serum two weeks after booster, vs control mice
T1 construct: made in house
Excerpt: A vaccination program targeting KPC- and NDM-1 was developed. The KPC gene was cloned from a pan-resistant (to all antibiotics, including colistin) clinical lung isolate of K. pneumoniae acquired at a local hospital (KPC-KP1) and the NDM-1 gene was cloned from a clinical K. pneumoniae isolate (ATCC BAA-2146). Recombinant KPC (rKPC) and recombinant NDM-1 (rNDM-1) proteins were expressed, purified, and used for immunization of mice. The immunization of the mice consisted of subcutaneously injecting either rKPC or rNDM-1 with Al(OH)3 adjuvant. A booster immunization for each mouse was administered at three weeks post initial immunization. Two weeks after the booster, serum from immune and control mice were harvested. […] Thus, high titers of immune polyclonal antibodies have been generated against KPC and NDM-1.

| Molecule | MIC [1] | MIC [2] | anti-NDM-1 IgG titers (NDM-1; listed as NDM-1) | anti-NDM-1 IgG titers (NDM-1; listed as rNDM1) |
| --- | --- | --- | --- | --- |
| C[C@@H](O)[C@H]1C(=O)N2C(C(=O)O)=C(SCCN=CN)C[C@H]12 [imipenem] | > 32 µg/mL | > 32 µg/mL | – | – |
| B1 | – | – | marked increase | high titers |
